Experiments:
[1] = Stability test in liver microsomes (rat); type: in vitro ADME; conditions: rat liver microsomes 0.5 mg/mL, 1 μM compound
Experimental: Both male CD-1 mouse pooled liver microsomes and male SD rat pooled liver microsomes were purchased from BioreclamationIVT Corporation, USA.
The test compound stock solution was diluted with an organic solvent (usually a mixture of acetonitrile, methanol and water with various ratios, depending on the solubility of the compound, if necessary, 1 N hydrochloric acid or 1 N sodium hydroxide would be added to facilitate solubilization) to the 0.1 mM (the final concentration of the compound in the reaction system was 1 μM) and the concentration percentage of the organic solvents in the incubation system no more than 1% (wherein the percentage of DMSO was required to be no more than 0.1%). An appropriate amount of 100 mM NADP, 500 mM G-6-P and 100 Unit/mL G-6-PDH were mixed and diluted with ultrapure water (the final system contains 1 mM NADP, 5 mM G-6-P and 1 Unit/mL G-6-PDH), pre-incubated in a 37° C. water bath for 10 minutes and then placed on ice for use as a NADPH regeneration solution. 20 mg/mL liver microsomes solution and 200 mM phosphate buffer were mixed, and diluted with ultrapure water to give a liver microsomes solution containing 2.5 mg/mL liver microsomes (the final concentration of the reaction system is 0.5 mg/mL) and 50 mM phosphate buffer. The diluted liver microsomes solution was mixed with 0.1 mM compound solution, a mixture of 100 mM EDTA, 300 mM MgCl2 solution, 200 mM phosphate buffer (the final system was 3 mM MgCl2, 1 mM EDTA and 50 mM phosphate buffer) and water in an appropriate volume was added. Finally, the NADPH regeneration solution was added, then the reaction solution was placed in a 37° C. water bath to start the reaction (the reaction time was 30 minutes), and the reaction was stopped by adding the ice-cold acetonitrile reaction stopping solution containing the internal standard. The 0-minute sample was not incubated in a 37° C. water bath, and its difference from the 30-minute sample further lies in that the ice-cold acetonitrile reaction stopping solution containing the internal standard was added first, and then the NADPH regeneration solution was added. The sample added with the reaction stopping internal standard solution was vortexed and mixed well, and then centrifuged at 4400 rpm for 10 minutes. The supernatant was taken and diluted ten times with 50% methanol for LC-MS/MS analysis.
LC-MS/MS was used to determine the concentration of the compound in the sample. The percentage of the remaining compound after 30 minutes of incubation comparing with that in the 0-minute sample was calculated using the peak area ratio of the compound to the internal standard as an indicator, to evaluate the metabolic stability of the compound.

[2] = system: anti-IgD antibody-induced B cell activation in mice whole blood; test: In vivo efficacy of the inhibitory effect on BTK target: anti-IgD antibody-induced B cell activation in mice whole blood after oral dosing; set-up: species or system mouse; conditions: 5 mg/kg oral single dose, 16 h
Experimental: Objects: B cells in mice whole blood were induced and activated by the anti-IgD antibody, and the inhibitory effect of the compound of the present invention on B cell activation in vivo was studied, so as to determine the inhibitory effect of the compound of the present invention on the BTK target in vivo.
Methods: C57BL/6 mice (female, 18-20 g, purchased from Shanghai Lingchang Biotechnology Co., Ltd.) were grouped according to Table 1.
The animals of each group were administered, then were placed in CO2 for anesthesia at designated time points, blood samples were taken from […] via retro-orbital bleeding, and heparin was used for anticoagulation; 90 μL of whole blood was taken from mice of each group, and added to a 96 well culture plate, and anti-mouse IgD antibody (BIO-RAD, Cat #MCA4693) was added to each well to a final concentration of […] (respectively for each drug-treated group and anti-IgD antibody-inducted vehicle group); in addition, 90 μL of whole blood of mice in the vehicle group was taken and added to the 96-well culture plate, and PBS (phosphate buffer, GIBCO, Cat #C20012500BT) was added to each well to a final concentration of 0.01 μg/L (namely, the vehicle control group); Each group was mixed well and incubated in a 37° C./5% CO2 incubator for 4 hours. In addition, the blood of mice in the drug-treated group was centrifuged to separate plasma for blood concentration analysis.
B cell activation ratio=percentage of CD69^+CD19^+ double positive B cells/percentage of CD19^+ single positive B cells
Inhibition ratio=(percentage of B cell activation ratio in anti-IgD antibody-induced vehicle group−percentage of B cell activation ratio in drug-treated group)/(percentage of B cell activation ratio in anti-IgD antibody−induced vehicle group-percentage of B cell activation ratio in vehicle control group)×100%
All data are represented by mean±standard error. For the comparison between each drug-treated group and the anti-IgD antibody-induced vehicle group, p value was calculated by Graphpad Prism using one-way ANOVA analysis of variance and Dunnett's test, and for the comparison between each drug-treated group, p value was calculated by using unpaired t test.

[3] = system: idiopathic thrombocytopenic purpura induced by anti-mouse CD41 antibodies; test: Idiopathic thrombocytopenic purpura induced by anti-CD41 antibody in mice, level of platelets; type: in vivo
Experimental: Male C57BL/6 mice were purchased from Shanghai Lingchang Biotechnology Co., Ltd. (certificate number 20180003011079, initial body weight of 18-20 grams), and were randomly grouped according to Table 4, with 8 mice in each group. […] When modeling, each mouse was intraperitoneally injected with 200 μL of PBS solution containing […] of anti-mouse CD41 antibodies (BD, Cat #: 553487, Lot #: 7026765).
Eight hours and twenty-four hours after modeling, the whole blood was collected and placed in a centrifuge tube coated with 10% citrate-phosphate-dextrose-adenine (CPDA), and the level of platelets (PLT) in the whole blood was measured by an XT-2000i (SYSMEX) automatic blood analyzer (Shanghai Laboratory Animal Research Centre Sino-British SIPPR/B & K Lab Animal Ltd).
The average level of platelets in peripheral blood was analyzed with Graphpad statistical software by one way ANOVA followed by Fisher LSD multiple comparison test, and the p value was calculated, wherein *p<0.05 indicated a statistically significant difference compared with the vehicle control group, **p<0.01 indicated a statistically extremely significant difference compared with the vehicle control group, and ##p<0.01 indicated a statistically extremely significant difference compared with the normal group.
RR %=(PLTtreatment−PLTmodel)/(PLTnaive−PLTmodel)×100%.

C[C@H]1CN(C2COC2)C[C@H](C)N1c1ccc(Nc2cc(-c3ccnc(-n4ccn5c6c(cc5c4=O)CC(C)(C)C6)c3CO)cn(C)c2=O)nc1 [Compound 1, 2-(5-((5-((2S,6S)-2,6-dimethyl-4-(oxetan-3-yl)piperazin-1-yl)pyridin-2-yl)amino)-3′-(hydroxymethyl)-1-methyl-6-oxo-1,6-dihydro-[3,4′-bipyridin]-2′-yl)-7,7-dimethyl-7,8-dihydro-2H-cyclopenta[4,5]pyrrolo[1,2-a]pyrazin-1(6H)-one]
RLM, percentage of the remaining compound after 30 minutes of incubation [1]: 87.9% | Inhibition ratio (%) on B cell activation [2]: 60% | B cell activation ratio (the population of activated B cells in total B cells) ([2]; mean ± standard error): 16.0 ± 3.9 | Inhibition ratio (%) on B cell activation ([2]; listed as compound 1): 60% | recovery rate of platelets ([3]; 0.004 mg/kg oral single dose, 8 hours after modeling): 25% | recovery rate of platelets ([3]; 0.004 mg/kg oral single dose, 24 hours after modeling): 5% | recovery rate of platelets ([3]; 0.04 mg/kg oral single dose, 8 hours after modeling): 37% | recovery rate of platelets ([3]; 0.04 mg/kg oral single dose, 24 hours after modeling): 21% | recovery rate of platelets ([3]; 0.4 mg/kg oral single dose, 8 hours after modeling): 44% | recovery rate of platelets ([3]; 0.4 mg/kg oral single dose, 24 hours after modeling): 29% | recovery rate of platelets ([3]; 4 mg/kg oral single dose, 8 hours after modeling): 51% | recovery rate of platelets ([3]; 4 mg/kg oral single dose, 24 hours after modeling): 29% | minimum effective dose ([3]; single oral dose, platelets 8 hours after modeling): 0.04 mg/kg
